Laboratory results taken from the METLIN SMRT retention time set (Domingo-Almenara et al. 2019).

Experiment: gradient 5% acetonitrile 3 min, to 50% in 2 min, to 85% in 15 min, held 3 min, 100 µL/min
Conditions: column: Zorbax Extend-C18 2.1 x 50 mm; eluents: water / acetonitrile, 0.1% formic acid
Method in brief: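 Data were gathered over 3 months by HPLC coupled to a quadrupole time-of-flight mass spectrometer, operated in positive and negative ionization mode. Mixtures of ~100 pure standards ran on a Zorbax Extend-C18 column (2.1 × 50 mm, 1.8 μm) at 100 μL/min, with water and acetonitrile each containing 0.1% formic acid and dead and dwell volumes of 40 μL and 900 μL. Retention time was read from adduct peaks picked by computer and checked manually.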

RP-LC retention time | Structure (SMILES)
790 s | CSc1cccc(NC(=O)Cn2c(C)cc(-c3nnc(C)o3)c2C)c1
1130 s | Cc1cc(C)c2nc(-c3ccccc3Br)cc(C(=O)O)c2c1
597 s | Cn1ncc2c3ccccc3n(CC(=O)NCCCN3CCN(Cc4ccccc4)CC3)c2c1=O
739 s | O=C(Nc1ccccc1NC(=O)C1CC(=O)N(c2ccc(F)cc2)C1)c1ccsc1 (configuration not stated)
641 s | O=C(NCc1ccccc1F)C1CCN(c2cncnc2N2CCCC2)CC1
822 s | Cc1ccc(C(=O)Nc2cnc(N3CCCCC3)nc2)s1
846 s | CC(C(=O)N1CCCN(c2cc(=O)n(C(C)C)c(=O)n2C(C)C)CC1)N1C(=O)COc2ccccc21 (configuration not stated)
668 s | Cc1c(CCC(=O)NCC2CCCO2)c(=O)n2nc(-c3ccccc3)nc2n1C (configuration not stated)
663 s | CN(C)C(CNC(=O)c1cc(-c2ccccc2)on1)c1cccs1 (configuration not stated)
793 s | O=C(NCCOc1ccc(F)cc1)c1cc(-c2cccs2)n(C2CCS(=O)(=O)C2)n1 (configuration not stated)
982 s | Cc1nc(Cn2cccc2C(=O)Nc2ccc(C(C)C)cc2)no1
766 s | COc1ccc(OC)c(S(=O)(=O)Nc2ccc(Oc3nc4ccccc4n4cnnc34)cc2)c1
660 s | CCN1CCN(C(=O)C2CCCN(S(=O)(=O)c3ccc4c(ccn4CC)c3)C2)CC1 (configuration not stated)
648 s | Cc1cccc2nnc(N3CCN(C(=O)c4ccc(F)cc4)CC3)n12
582 s | CCN1CCN(c2nc(F)c(F)c(S(=O)(=O)CCN3C(=O)CCC3=O)c2F)CC1
1110 s | Cc1ccc(C2c3[nH]c4ccccc4c3CCN2C(=O)C2CC2)cc1 (configuration not stated)
700 s | COc1ccccc1CNC(=O)C1CCN(c2nnc3c(Cl)cccn23)CC1
626 s | CCOc1ccc(S(=O)(=O)N(CC(=O)N2CCNCC2)CC2CCCO2)cc1 (configuration not stated)
1200 s | COc1cccc(-n2c(=O)c(C(=O)Nc3ccccc3F)c(O)c3cccnc32)c1
772 s | N[C@@H]1CCCN(c2c(/C=C3\SC(=O)NC3=O)cccc2-c2ccccc2)C1
876 s | O=C(Cc1c[nH]c2ccccc12)Nc1cc(-c2ccsc2)no1
948 s | COc1ccc(N2C=C(C#N)S(=O)(=O)c3ccc(F)cc32)cc1Cl

RP-LC retention time | Structure (SMILES)
1140 s | CC(C)OC(=O)COC(=O)c1cn(-c2cccc(Cl)c2)c(=O)c2ccccc12
961 s | CCN(C(=O)CN1C(=O)CCCc2cc(S(=O)(=O)N3CCCCC3)ccc21)c1ccc(OC)cc1
663 s | CN(C)C(=O)c1cccnc1OC1CCN(C(=O)c2ccc(Br)o2)C1 (configuration not stated)
572 s | NC(=O)C1CCN(C(=O)c2c[nH]c3c(C(F)(F)F)cccc3c2=O)CC1
868 s | Cc1ccc(CNC(=O)C2(C)CN(S(C)(=O)=O)CC(=O)N2Cc2cccc(C)c2)cc1 (configuration not stated)
735 s | Cc1cc(C)c2nc(C)cc(C(=O)NCc3ccc(C)o3)c2c1
733 s | Cc1ccc(NC(=O)N2CCC(c3cc(N)on3)CC2)cc1F
969 s | CCCn1c(=O)sc2cc(S(=O)(=O)N3CCC(C(=O)NCc4ccc(C)cc4)CC3)ccc21
655 s | O=C(C1CCC1)N1CCC(c2noc(-c3cnccn3)n2)C1 (configuration not stated)
617 s | CCc1ccc(CNC(=O)C2Cc3cc(S(=O)(=O)N(CC)CC)ccc3N2C(C)=O)cc1 (configuration not stated)
614 s | O=C(Nc1nccs1)c1cc(-c2ccncc2)nc2ccccc12
819 s | Cc1cc(C)cc(NC(=O)Cn2nc(C(=O)N3CCOCC3)c3ccccc32)c1
911 s | CC(Oc1cccc(Cl)c1)C(=O)Nc1ccc2c(c1)Sc1ncccc1C(=O)N2C (configuration not stated)
808 s | O=C(Nc1cccc2c1CCCC2)C1CCN(S(=O)(=O)c2ccc3[nH]c(=O)ccc3c2)CC1
569 s | COc1cc(NC(=O)N2CCC(n3c(C)nc4cccnc43)CC2)cc(OC)c1OC
759 s | CCOc1ccc(NC(=O)N2CCC(n3c(-c4ccco4)nc4cccnc43)C2)cc1 (configuration not stated)
647 s | CC(C)c1nnc2n1CCN(C(=O)c1cc(-c3ccccc3)n[nH]1)C2
782 s | CC(Oc1ccc(Cl)cc1)C(=O)NCC1CCOCC1 (configuration not stated)
976 s | Cc1ccc(NC(=O)Cn2nc3cc(-c4ccccc4)nc(C)n3c2=O)cc1F
894 s | CC(C)N1C(=O)C(C)(C(=O)NCc2ccc3c(c2)OCO3)Oc2cccnc21 (configuration not stated)
703 s | Brc1ccc(-c2ccc(CNCC3CCCO3)o2)cc1 (configuration not stated)
632 s | CCOC(=O)c1c(S(=O)(=O)N2CCC(C(=O)Nc3ncccc3C)CC2)c(C)n(C)c1C

RP-LC retention time | Structure (SMILES)
799 s | COc1cccc(-n2ccc(=O)c(-c3nc(-c4ccc5c(c4)OCO5)no3)n2)c1
813 s | CCOC(=O)c1c(C)[nH]c(C(=O)N2CCC(CC(=O)NCc3ccccc3Cl)CC2)c1C
649 s | O=C(N1CCC(NS(=O)(=O)Cc2ccccc2)CC1)N1C[C@H]2C[C@H](C1)[C@H]1CCCC(=O)N1C2
1100 s | Cc1ccc(-n2c(=O)c3sccc3n(Cc3nc(-c4cccc(C(F)(F)F)c4)no3)c2=O)cc1
780 s | O=C(CCNc1c(-c2cccc(F)c2)nc2cnccn12)NCc1ccccc1Cl
895 s | CCSc1nnc(NC(=O)Cc2cc(-c3ccc4c(c3)CC(C)O4)on2)s1 (configuration not stated)
864 s | COc1ccccc1NC(=O)c1c(O)c2cccnc2n(-c2ccc(F)cc2)c1=O
1090 s | COc1ccc(Cl)cc1NC(=O)c1cnc(N2CCN(c3ncccn3)CC2)c2ccccc12
1240 s | C=CCN(CC=C)S(=O)(=O)c1ccc(C(=O)Nc2nc3c(s2)CCc2ccccc2-3)cc1
1170 s | COC(=O)c1ccc(Cn2nc(C3CC3)c3cnn(-c4cccc(Cl)c4)c3c2=O)cc1
1060 s | C[C@H]1CN(C(=O)C2CCCC2)C[C@@H]1c1nc(-c2ccccc2)no1
660 s | Cc1cccc2nnc(N3CCC(C(=O)NCc4ccccc4)CC3)n12
696 s | Cc1ccc(-c2nnc(-c3cccc(S(=O)(=O)NCc4cccnc4)c3)o2)cc1
654 s | CCn1cc(C(=O)N2CCC(c3nnc(-c4ccco4)o3)CC2)c(=O)c2ccc(C)nc21
848 s | O=C(CSc1ccc(-c2cccs2)nn1)N1CCN(c2ccccc2)CC1
774 s | Cc1cc(=O)n(CC(=O)Nc2ccc(C(C)C)cc2)c(N2CCOCC2)n1
916 s | CCn1c(CCC(=O)NCc2ccc(F)c(Cl)c2)nc2c(C)cccc2c1=O
594 s | O=C(NCCCN1CCOCC1)c1cc2n(n1)CCCN(Cc1ccccc1)C2=O
846 s | O=C(Cn1nc(N2CCOCC2)c2ccccc2c1=O)Nc1cccc(Cl)c1
592 s | CCCC1c2nccn2CCCN1C(=O)c1ccoc1C (configuration not stated)
579 s | CCCc1nc2cccnc2n1C1CCN(C(=O)c2ccc(N3CCCC3=O)cc2)C1 (configuration not stated)
725 s | CCC(=O)N1CCc2cc(N3CC(C(=O)NCc4ccc(F)cc4)CC3=O)ccc21 (configuration not stated)

RP-LC retention time | Structure (SMILES)
888 s | CCOC(=O)Cn1c(=O)c2c(nc3n2CC(C)CN3c2ccc(OC)cc2)n(C)c1=O (configuration not stated)
951 s | Cc1noc(C)c1-c1ccc(S(=O)(=O)N2CCCC2)cc1
1150 s | CCc1ccc(-c2csc(Nc3ccc(S(=O)(=O)Nc4cc(OC)nc(OC)n4)cc3)n2)cc1
904 s | CCOC(=O)c1c(C)c(CCC(=O)NC(C)c2ccccc2)n(C)c1C (configuration not stated)
849 s | COc1ccc(NC(=O)c2cnc3c(c2)c(=O)n(C)c(=O)n3-c2ccc(C)cc2)cc1F
785 s | COc1cccc(CN2CCc3nc(N4CCN(c5ccccc5F)CC4)ncc3C2)c1
841 s | Cc1ccccc1NC(=O)CSc1nnc2c3cc(-c4ccccc4)nn3ccn12
667 s | COc1ccc(CNC(=O)N2CCN(Cc3nc4cc(Cl)ccc4o3)CC2)cc1
804 s | CCOC(=O)c1cnn(-c2ccc(C(=O)NCc3ccco3)cn2)c1C
952 s | O=C(CCC1CCCN(S(=O)(=O)c2ccccc2F)C1)NCCc1ccccc1 (configuration not stated)
901 s | Cc1ccc2c(c1)c1c3n2CCN(c2nc(-c4ccccc4)cs2)C3CCC1 (configuration not stated)
713 s | CNC(=O)N1CCOc2cc(C)ccc21
707 s | COC(=O)CSC1=C(C#N)C(c2ccsc2)CC(=O)N1 (configuration not stated)
708 s | CCN(CC)S(=O)(=O)N1CCC(C(=O)N2CCN(Cc3noc4ccccc34)CC2)CC1
638 s | COc1ccc(NC2=NC(C)(CO)CS2)cc1 (configuration not stated)
600 s | CCOc1ncccc1CNC(=O)c1cnccn1
568 s | CCOCCCNC(=O)CCCN1C(=O)CCn2nc(C)cc21
969 s | Cc1nc(N2CCN(c3ncccn3)CC2)nc2c1C(=O)CC(c1ccccc1O)C2 (configuration not stated)
797 s | COCc1cc(=O)n(CC(=O)Nc2ccc(F)cc2)c(N2CCOCC2)n1
1210 s | CCc1ccc(-n2ncc3c(=O)n(Cc4nc(-c5ccc(SC)cc5)no4)cnc32)cc1
707 s | CCn1cc(CN2CCC(C(=O)NCc3ccccc3C)CC2)c2cc(OC)ccc21
